Experiments:
Cryptococcus neoformans [1] = assay: Concentration for complete inhibition of growth of Cryptococcus neo formans; type: functional, organism-based
Rattus norvegicus [2] = assay: Evaluated for cure against vaginal candidosis after topical treatment with 1% of compound in a group of 10 rats; type: functional
Mucor [3] = assay: Concentration for complete inhibition of growth of Mucor sp.; type: functional
Cavia porcellus [4] = assay: Evaluated for cure against microsporosis after topical treatment with 1% of compound in a group of 8 guinea pigs; type: functional
Candida albicans [5] = assay: Concentration for complete inhibition of growth of Candida albicans; type: functional, organism-based
Saprolegnia [6] = assay: Concentration for complete inhibition of growth of Saprolegnia sp.; type: functional, organism-based
Trichophyton rubrum [7] = assay: Concentration for complete inhibition of growth of Trichophyton rubrum; type: functional, organism-based
Cavia porcellus [8] = assay: Evaluated for marked improvement against microsporosis after topical treatment with 0.5% of compound in a group of 8 guinea pigs; type: functional
Phialophora verrucosa [9] = assay: Concentration for complete inhibition of growth of Phialophora uerrucosa; type: functional, organism-based
Microsporum canis [10] = assay: Concentration for complete inhibition of growth of Microsporum canis; type: functional, organism-based
Rattus norvegicus [11] = assay: Evaluated for marked improvement against vaginal candidosis after topical treatment with 0.5% of compound in a group of 10 rats; type: functional
Cavia porcellus [12] = assay: Evaluated for marked improvement against trichophytosis after topical treatment with 0.5% of compound in a group of 6 guinea pigs; type: functional
Candida tropicalis [13] = assay: Concentration for complete inhibition of growth of Candida tropicalis; type: functional, organism-based
Aspergillus fumigatus [14] = assay: Concentration for complete inhibition of growth of Aspergillus fumigatus; type: functional, organism-based
Trichophyton benhamiae [15] = assay: Concentration for complete inhibition of growth of Trichophyton mentagrophytes; type: functional, organism-based; conditions: Arthroderma benhamiae
Cavia porcellus [16] = assay: Evaluated for cure against trichophytosis after topical treatment with 1% of compound in a group of 6 guinea pigs; type: functional
Sporothrix schenckii [17] = assay: Concentration for complete inhibition of growth of Sporo thrix schenck ii; type: functional, organism-based
Aspergillus fumigatus [18] = assay: Concentration for marked inhibition of growth of Aspergillus fumigatus in Sabouraud broth; type: functional, organism-based
Mucor [19] = assay: Concentration for marked inhibition of growth of Mucor sp. in Sabouraud broth; type: functional
Candida tropicalis [20] = assay: Concentration for marked inhibition of growth of Candida tropicalis in Sabouraud broth; type: functional, organism-based
Rattus norvegicus [21] = assay: Evaluated for marked improvement against vaginal candidosis after 3 days of 2 times a day topical treatment with 0.5% of compound in a group of 48 rats; Improved; type: functional
Cryptococcus neoformans [22] = assay: Concentration for marked inhibition of growth of Cryptococcus neoformans in Sabouraud broth with 10% inactive bovine serum; type: functional, organism-based
Cryptococcus neoformans [23] = assay: Concentration for complete inhibition of growth of Cryptococcus neoformans; type: functional, organism-based
Trichophyton benhamiae [24] = assay: Concentration for marked inhibition of growth of Trichophyton mentagrophytes in Sabouraud broth with 10% inactive bovine serum; type: functional, organism-based; conditions: Arthroderma benhamiae
Sporothrix schenckii [25] = assay: Concentration for complete inhibition of growth of Sporothrix schenck ii in Sabouraud broth with 10% inactive bovine serum; type: functional, organism-based
Candida albicans [26] = assay: Concentration for marked inhibition of growth of Candida albicans in Sabouraud broth with 10% inactive bovine serum; type: functional, organism-based
Trichophyton rubrum [27] = assay: Concentration for marked inhibition of growth of Trichophyton rubrum in Sabouraud broth; type: functional, organism-based
Aspergillus fumigatus [28] = assay: Concentration for marked inhibition of growth of Aspergillus fumigatus in Sabouraud broth with 10% inactive bovine serum; type: functional, organism-based
Trichophyton benhamiae [29] = assay: Concentration for complete inhibition of growth of Trichophyton mentagrophytes in Sabouraud broth with 10% inactive bovine serum; type: functional, organism-based; conditions: Arthroderma benhamiae
Candida tropicalis [30] = assay: Concentration for marked inhibition of growth of Candida tropicalis in Sabouraud broth with 10% inactive bovine serum; type: functional, organism-based
Phialophora verrucosa [31] = assay: Concentration for marked inhibition of growth of Phialophora verrucosa in Sabouraud broth; type: functional, organism-based
Cavia porcellus [32] = assay: Evaluated for marked improvement against microsporosis after 12 days of one time a day topical treatment with 0.5% of compound in a group of 36 guinea pigs; Improved; type: functional
Sporothrix schenckii [33] = assay: Concentration for marked inhibition of growth of Sporo thrix schenck ii in Sabouraud broth; type: functional, organism-based
Cavia porcellus [34] = assay: Evaluated for cure against trichophytosis after 12 days of one time a day topical treatment with 0.5% of compound in a group of 20 guinea pigs; type: functional
Saprolegnia [35] = assay: Concentration for marked inhibition of growth of Saprolegnia sp. in Sabouraud broth with 10% inactive bovine serum; type: functional, organism-based
Mucor [36] = assay: Concentration for complete inhibition of growth of Mucor sp. in Sabouraud broth with 10% inactive bovine serum; type: functional
Aspergillus fumigatus [37] = assay: Concentration for complete inhibition of growth of Aspergillus fumigatus in Sabouraud broth with 10% inactive bovine serum; type: functional, organism-based
Microsporum canis [38] = assay: Concentration for marked inhibition of growth of Microsporum canis in Sabouraud broth; type: functional, organism-based
Sporothrix schenckii [39] = assay: Concentration for complete inhibition of growth of Sporothrix schenck ii; type: functional, organism-based
Candida tropicalis [40] = assay: Concentration for complete inhibition of growth of Candida tropicalis in Sabouraud broth with 10% inactive bovine serum; type: functional, organism-based
Mucor [41] = assay: Concentration for marked inhibition of growth of Mucor sp. in Sabouraud broth with 10% inactive bovine serum; type: functional
Microsporum canis [42] = assay: Concentration for complete inhibition of growth of Microsporum canis in Sabouraud broth with 10% inactive bovine serum; type: functional, organism-based
Cryptococcus neoformans [43] = assay: Concentration for complete inhibition of growth of Cryptococcus neoformans in Sabouraud broth with 10% inactive bovine serum; type: functional, organism-based
Phialophora verrucosa [44] = assay: Concentration for complete inhibition of growth of Phialophora verrucosa; type: functional, organism-based
Phialophora verrucosa [45] = assay: Concentration for marked inhibition of growth of Phialophora verrucosa in Sabouraud broth with 10% inactive bovine serum; type: functional, organism-based
Candida albicans [46] = assay: Concentration for marked inhibition of growth of Candida albicans in Sabouraud broth; type: functional, organism-based
Cavia porcellus [47] = assay: Evaluated for cure against microsporosis after 12 days of one time a day topical treatment with 0.5% of compound in a group of 36 guinea pigs; type: functional
Saprolegnia [48] = assay: Concentration for complete inhibition of growth of Saprolegnia sp. in Sabouraud broth with 10% inactive bovine serum; type: functional, organism-based
Cavia porcellus [49] = assay: Evaluated for marked improvement against trichophytosis after 12 days of one time a day topical treatment with 0.5% of compound in a group of 20 guinea pigs; Improved; type: functional
Trichophyton rubrum [50] = assay: Concentration for marked inhibition of growth of Trichophyton rubrum in Sabouraud broth with 10% inactive bovine serum; type: functional, organism-based
Phialophora verrucosa [51] = assay: Concentration for complete inhibition of growth of Phialophora verrucosa in Sabouraud broth with 10% inactive bovine serum; type: functional, organism-based
Saprolegnia [52] = assay: Concentration for marked inhibition of growth of Saprolegnia sp. in Sabouraud broth; type: functional, organism-based
Sporothrix schenckii [53] = assay: Concentration for marked inhibition of growth of Sporothrix schenck ii in Sabouraud broth with 10% inactive bovine serum; type: functional, organism-based
Microsporum canis [54] = assay: Concentration for marked inhibition of growth of Microsporum canis in Sabouraud broth with 10% inactive bovine serum; type: functional, organism-based
Rattus norvegicus [55] = assay: Evaluated for cure against vaginal candidosis after 3 days of 2 times a day topical treatment with 0.5% of compound in a group of 48 rats; type: functional
Trichophyton benhamiae [56] = assay: Concentration for marked inhibition of growth of Trichophyton mentagrophytes in Sabouraud broth; type: functional, organism-based; conditions: Arthroderma benhamiae
Cryptococcus neoformans [57] = assay: Concentration for marked inhibition of growth of Cryptococcus neoformans in Sabouraud broth; type: functional, organism-based
Trichophyton rubrum [58] = assay: Concentration for complete inhibition of growth of Trichophyton rubrum in Sabouraud broth with 10% inactive bovine serum; type: functional, organism-based
Candida albicans [59] = assay: Concentration for complete inhibition of growth of Candida albicans in Sabouraud broth with 10% inactive bovine serum; type: functional, organism-based

Clc1ccccc1C(c1ccccc1)(c1ccccc1)n1ccnc1 [CLOTRIMAZOLE]
Concentration (Cryptococcus neoformans [1]): > 100 µg/mL
Cure (Rattus norvegicus [2]): 2
Concentration (Mucor [3]): > 100 µg/mL
Cure (Cavia porcellus [4]): 4
Concentration (Candida albicans [5]): > 100 µg/mL
Concentration (Saprolegnia [6]): > 100 µg/mL
Concentration (Trichophyton rubrum [7]): < 1 µg/mL
Improved (Cavia porcellus [8]): 1
Concentration (Phialophora verrucosa [9]): > 100 µg/mL
Concentration (Microsporum canis [10]): < 1 µg/mL
Improved (Rattus norvegicus [11]): 2
Improved (Cavia porcellus [12]): 1
Concentration (Candida tropicalis [13]): > 100 µg/mL
Concentration (Aspergillus fumigatus [14]): 100 µg/mL
Concentration (Trichophyton benhamiae [15]): < 1 µg/mL
Cure (Cavia porcellus [16]): 3
Concentration (Sporothrix schenckii [17]): > 100 µg/mL

CC(C)N1CCN(c2ccc(OCC3COC(Cn4cncn4)(c4ccc(Cl)cc4Cl)O3)cc2)CC1 (configuration not stated) [TERCONAZOLE]
Concentration (Aspergillus fumigatus [18]): > 100 µg/mL
Concentration (Mucor [3]): > 100 µg/mL
Concentration (Mucor [19]): > 100 µg/mL
Concentration (Candida albicans [5]): > 100 µg/mL
Concentration (Saprolegnia [6]): 100 µg/mL
Concentration (Candida tropicalis [20]): 1 µg/mL
Concentration (Trichophyton rubrum [7]): 100 µg/mL
Activity (Rattus norvegicus [21]): 2
Concentration (Cryptococcus neoformans [22]): 0.1 µg/mL
Concentration (Cryptococcus neoformans [23]): 10 µg/mL
Concentration (Trichophyton benhamiae [24]): 0.1 µg/mL
Concentration (Sporothrix schenckii [25]): 100 µg/mL
Concentration (Candida albicans [26]): 0.1 µg/mL
Concentration (Trichophyton rubrum [27]): 10 µg/mL
Concentration (Aspergillus fumigatus [28]): 100 µg/mL
Concentration (Trichophyton benhamiae [29]): 1 µg/mL
Concentration (Candida tropicalis [30]): 0.1 µg/mL
Concentration (Microsporum canis [10]): 100 µg/mL
Concentration (Phialophora verrucosa [31]): 10 µg/mL
Activity (Cavia porcellus [32]): 17
Concentration (Sporothrix schenckii [33]): 100 µg/mL
Cure (Cavia porcellus [34]): 20
Concentration (Saprolegnia [35]): 1 µg/mL
Concentration (Mucor [36]): 100 µg/mL
Concentration (Aspergillus fumigatus [37]): > 100 µg/mL
Concentration (Microsporum canis [38]): 100 µg/mL
Concentration (Sporothrix schenckii [39]): 100 µg/mL
Concentration (Candida tropicalis [40]): 1 µg/mL
Concentration (Mucor [41]): 100 µg/mL
Concentration (Microsporum canis [42]): 100 µg/mL
Concentration (Cryptococcus neoformans [43]): 1 µg/mL
Concentration (Phialophora verrucosa [44]): 100 µg/mL
Concentration (Phialophora verrucosa [45]): 1 µg/mL
Concentration (Candida albicans [46]): 10 µg/mL
Cure (Cavia porcellus [47]): 19
Concentration (Saprolegnia [48]): 10 µg/mL
Activity (Cavia porcellus [49]): 0
Concentration (Candida tropicalis [13]): 10 µg/mL
Concentration (Trichophyton rubrum [50]): 1 µg/mL
Concentration (Phialophora verrucosa [51]): 10 µg/mL
Concentration (Saprolegnia [52]): 10 µg/mL
Concentration (Aspergillus fumigatus [14]): > 100 µg/mL
Concentration (Trichophyton benhamiae [15]): 1 µg/mL
Concentration (Sporothrix schenckii [53]): 1 µg/mL
Concentration (Microsporum canis [54]): 10 µg/mL
Cure (Rattus norvegicus [55]): 35
Concentration (Trichophyton benhamiae [56]): 1 µg/mL
Concentration (Cryptococcus neoformans [57]): 1 µg/mL
Concentration (Trichophyton rubrum [58]): 10 µg/mL
Concentration (Candida albicans [59]): 100 µg/mL

From ChEMBL document CHEMBL1122221, “Antimycotic azoles. 6. Synthesis and antifungal properties of terconazole, a novel triazole ketal” (1983)
